# In patent US20250353820A1, “ANTIVIRAL PYRAZOLOPYRIDINONE COMPOUNDS” (Novartis AG, priority 2019, published 2025):
# Target: human HSV DNA polymerase UL30 (Human herpesvirus 1 (strain 17) (HHV-1) (Human herpes simplex virus 1), UniProt P04293)
# Assay: biochemical
# Conditions: 625 pM HSV polymerase, 20 minutes at room temperature; read-out: HSV-polymerase Biochemical IC50
row,SMILES,IC50 [nM]
1,"Cn1nc(C(=O)NCc2ccc(C#N)cc2)c2c1C(=O)N(CC1(S(=O)(=O)NC3CCNCC3)CC1)CC2 [Example 137, N-(4-Cyanobenzyl)-1-methyl-7-oxo-6-((1-(N-(piperidin-4-yl)sulfamoyl)cyclopropyl)methyl)-4,5,6,7-tetrahydro-1H-pyrazolo[3,4-c]pyridine-3-carboxamide]",691
2,"Cn1nc(C(=O)NCc2ccc(C#N)cc2)c2c1C(=O)N(CC1(S(=O)(=O)N3CCC(N)CC3)CC1)CC2 [Example 138, 6-((1-((4-Aminopiperidin-1-yl)sulfonyl)cyclopropyl)methyl)-N-(4-cyanobenzyl)-1-methyl-7-oxo-4,5,6,7-tetrahydro-1H-pyrazolo[3,4-c]pyridine-3-carboxamide]",326
3,"Cn1nc(C(=O)NCc2ccc(C#N)cc2)c2c1C(=O)N(CC1(S(=O)(=O)N3C[C@@H](N)[C@H](O)C3)CC1)CC2 [Example 139, 6-((1-(((3R,4R)-3-Amino-4-hydroxypyrrolidin-1-yl)sulfonyl)cyclopropyl)methyl)-N-(4-cyanobenzyl)-1-methyl-7-oxo-4,5,6,7-tetrahydro-1H-pyrazolo[3,4-c]pyridine-3-carboxamide]",143
4,"Cn1nc(C(=O)NCc2ccc(C#N)cc2)c2c1C(=O)N(CC1(S(=O)(=O)N3C[C@H](N)[C@@H](O)C3)CC1)CC2 [Example 140, 6-((1-(((3S,4S)-3-Amino-4-hydroxypyrrolidin-1-yl)sulfonyl)cyclopropyl)methyl)-N-(4-cyanobenzyl)-1-methyl-7-oxo-4,5,6,7-tetrahydro-1H-pyrazolo[3,4-c]pyridine-3-carboxamide]",147
5,"Cn1nc(C(=O)NCc2ccc(C#N)cc2)c2c1C(=O)N(CC1(S(=O)(=O)N3CC[C@@H](N)C3)CC1)CC2 [Example 141, (R)-6-((1-((3-Aminopyrrolidin-1-yl)sulfonyl)cyclopropyl)methyl)-N-(4-cyanobenzyl)-1-methyl-7-oxo-4,5,6,7-tetrahydro-1H-pyrazolo[3,4-c]pyridine-3-carboxamide]",192
6,"Cn1nc(C(=O)NCc2ccc(C#N)cc2)c2c1C(=O)N(CC1(S(=O)(=O)N3CC[C@H](N)C3)CC1)CC2 [Example 142, (S)-6-((1-((3-Aminopyrrolidin-1-yl)sulfonyl)cyclopropyl)methyl)-N-(4-cyanobenzyl)-1-methyl-7-oxo-4,5,6,7-tetrahydro-1H-pyrazolo[3,4-c]pyridine-3-carboxamide]",268
7,"Cn1nc(C(=O)NCc2ccc(Cl)cc2)c2c1C(=O)N(CC1(S(=O)(=O)NCCO)CC1)CC2 [Example 143, N-(4-Chlorobenzyl)-6-((1-(N-(2-hydroxyethyl)sulfamoyl)cyclopropyl)methyl)-1-methyl-7-oxo-4,5,6,7-tetrahydro-1H-pyrazolo[3,4-c]pyridine-3-carboxamide]",344
8,"CN(CCO)S(=O)(=O)C1(CN2CCc3c(C(=O)NCc4ccc(Cl)cc4)nn(C)c3C2=O)CC1 [Example 144, N-(4-Chlorobenzyl)-6-((1-(N-(2-hydroxyethyl)-N-methylsulfamoyl)cyclopropyl)methyl)-1-methyl-7-oxo-4,5,6,7-tetrahydro-1H-pyrazolo[3,4-c]pyridine-3-carboxamide]",67
9,"Cn1nc(C(=O)NCc2ccc(C#N)cc2)c2c1C(=O)N(CC1(S(=O)(=O)NCCO)CC1)CC2 [Example 145, N-(4-Cyanobenzyl)-6-((1-(N-(2-hydroxyethyl)sulfamoyl)cyclopropyl)methyl)-1-methyl-7-oxo-4,5,6,7-tetrahydro-1H-pyrazolo[3,4-c]pyridine-3-carboxamide]",237
10,"CN(CCO)S(=O)(=O)C1(CN2CCc3c(C(=O)NCc4ccc(C#N)cc4)nn(C)c3C2=O)CC1 [Example 146, N-(4-Cyanobenzyl)-6-((1-(N-(2-hydroxyethyl)-N-methylsulfamoyl)cyclopropyl)methyl)-1-methyl-7-oxo-4,5,6,7-tetrahydro-1H-pyrazolo[3,4-c]pyridine-3-carboxamide]",74
11,"CN(C(CO)CO)S(=O)(=O)C1(CN2CCc3c(C(=O)NCc4ccc(C#N)cc4)nn(C)c3C2=O)CC1 [Example 147, N-(4-Cyanobenzyl)-6-((1-(N-(1,3-dihydroxypropan-2-yl)-N-methylsulfamoyl)cyclopropyl)methyl)-1-methyl-7-oxo-4,5,6,7-tetrahydro-1H-pyrazolo[3,4-c]pyridine-3-carboxamide]",644
12,"Cn1nc(C(=O)NCc2ccc(Cl)cc2)c2c1C(=O)N(CC1(S(=O)(=O)NC(C)(C)CO)CC1)CC2 [Example 148, N-(4-Chlorobenzyl)-6-((1-(N-(1-hydroxy-2-methylpropan-2-yl)sulfamoyl)cyclopropyl)methyl)-1-methyl-7-oxo-4,5,6,7-tetrahydro-1H-pyrazolo[3,4-c]pyridine-3-carboxamide]",155
13,"Cn1nc(C(=O)NCc2ccc(C#N)cc2)c2c1C(=O)N(CC1(S(=O)(=O)NC(C)(C)CO)CC1)CC2 [Example 149, N-(4-Cyanobenzyl)-6-((1-(N-(1-hydroxy-2-methylpropan-2-yl)sulfamoyl)cyclopropyl)methyl)-1-methyl-7-oxo-4,5,6,7-tetrahydro-1H-pyrazolo[3,4-c]pyridine-3-carboxamide]",161
14,"Cn1nc(C(=O)NCc2ccc(Cl)cc2)c2c1C(=O)N(CC1(S(=O)(=O)N3CC(O)C3)CC1)CC2 [Example 150, N-(4-Chlorobenzyl)-6-((1-((3-hydroxyazetidin-1-yl)sulfonyl)cyclopropyl)methyl)-1-methyl-7-oxo-4,5,6,7-tetrahydro-1H-pyrazolo[3,4-c]pyridine-3-carboxamide]",81
15,"CNS(=O)(=O)C1(CN2CCc3c(C(=O)NCc4ccc(Cl)cc4)nn(C)c3C2=O)CC1 [Example 151, N-(4-Chlorobenzyl)-1-methyl-6-((1-(N-methylsulfamoyl)cyclopropyl)methyl)-7-oxo-4,5,6,7-tetrahydro-1H-pyrazolo[3,4-c]pyridine-3-carboxamide]",118
16,"Cn1nc(C(=O)NCc2ccc(Cl)cc2)c2c1C(=O)N(CC1(S(=O)(=O)NCC(C)(C)O)CC1)CC2 [Example 152, N-(4-Chlorobenzyl)-6-((1-(N-(2-hydroxy-2-methylpropyl)sulfamoyl)cyclopropyl)methyl)-1-methyl-7-oxo-4,5,6,7-tetrahydro-1H-pyrazolo[3,4-c]pyridine-3-carboxamide]",827
17,"Cn1nc(C(=O)NCc2ccc(Cl)cc2)c2c1C(=O)N(CC1(S(=O)(=O)NC(C)(CO)CO)CC1)CC2 [Example 153, N-(4-Chlorobenzyl)-6-((1-(N-(1,3-dihydroxy-2-methylpropan-2-yl)sulfamoyl)cyclopropyl)methyl)-1-methyl-7-oxo-4,5,6,7-tetrahydro-1H-pyrazolo[3,4-c]pyridine-3-carboxamide]",292
18,"Cn1nc(C(=O)NCc2ccc(C#N)cc2)c2c1C(=O)N(CC1(S(=O)(=O)Nc3ccccn3)CC1)CC2 [Example 155, N-(4-Cyanobenzyl)-1-methyl-7-oxo-6-((1-(N-(pyridin-2-yl)sulfamoyl)cyclopropyl)methyl)-4,5,6,7-tetrahydro-1H-pyrazolo[3,4-c]pyridine-3-carboxamide]",78
19,Cn1ccc(NS(=O)(=O)C2(CN3CCc4c(C(=O)NCc5ccc(C#N)cc5)nn(C)c4C3=O)CC2)n1 [Example 156],62
20,Cc1cccc(NS(=O)(=O)C2(CN3CCc4c(C(=O)NCc5ccc(C#N)cc5)nn(C)c4C3=O)CC2)n1 [Example 157],46
21,Cn1nc(C(=O)NCc2ccc(Cl)cc2)c2c1C(=O)N(CC1(S(=O)(=O)Nc3ccccn3)CC1)CC2 [Example 158],58
